Assay results reported in patent US12599666B2, “Photolytic compounds and triplet-triplet annihilation mediated photolysis” (University of Massachusetts, priority 2019, dated 2026).
Several values for one entry are separate records, joined by “and”; a condition that tells them apart may be missing. Equal entries are not always repeated. Where two headings read alike, the source gives them in different places. Marks after values point to notes of the source that are not given here.

Assays:
[1] = Photolytic molecule experiment: TTAP photolytic reaction in solution under LED, HPLC yield; assay type: physicochemical
Experimental: Photolytic molecule experiment: The NIR LED (720 nm), far red LED (650 nm), green LED (530 nm), blue LED (476 nm) and deep blue (455 nm) were used for photolytic reactions. […] Then, the solution was excited with a LED (20 mW/cm^2) at 37° C. After the photolytic reaction, the raw product was dried and re-dissolved in CH3CN/H2O=(2/1, v/v) and HPLC was used to analyze the yield of product.

[2] = Stern-Volmer photoluminescence quenching of photosensitizers by PPGs-X; assay type: physicochemical
Experimental: The Stern-Volmer quenching plots experiment (ksv): photoluminescence of photosensitizers (PtTNP, PdTPBP, PtOEP, and Ir(ppy)3) in the presence of different concentrations of PPGs (BDP, perylene, anthracene and coumarin). The mixed solutions were degassed for at least 15 min with Ar in toluene. The ksv constants were calculated with eq 1, where 1o and It stand for photoluminescence intensity of photosensitizer in the absence of PPGs-X and the photoluminescence intensity of photosensitizer in the presence PPGs-X. Q is the concentration of PPGs-X. Biomolecular quenching constants (kq) were calculated by eq2. The Tr is the phosphorescence lifetime of photosensitizer in argon.

[3] = TTA upconversion quantum yield; assay type: physicochemical
Experimental: The upconversion quantum yields (ΦUC): The upconversion quantum yields were calculated with the eq 3, where ΦUC and Φstd stand for upconversion luminescence quantum yield of sample TTA-UC and fluorescence quantum yield of reference compounds, respectively. Aunk and Astd stand for absorbance of the TTA-UC and reference compound, respectively. Iunk and Istd stand for integrated upconversion luminescence intensity of the TTA-UC and fluorescence intensity of reference compounds, respectively. ηunk and μstd stand for the refractive index of water. The equation is multiplied by a factor of 2 to make the maximum quantum yield of two unified emitters.
The upconversion experiments were deaerated with argon for ca. 15 min before measurement and the argon gas flow was kept during the measurement.

[4] = Photophysical parameters of Sen and PPGs (UV-vis absorption, emission, energy levels); assay type: physicochemical; design: λabs maximum absorption wavelength / λem maximum emission wavelength: unit not given here; details: for 2 × T1 − S1 / S1 singlet excited state: PPGs; for S1 singlet excited state: from maximum fluorescence emission; for λabs maximum absorption wavelength / λem maximum emission wavelength / ξ molar extinction coefficient: in toluene, 10 μM
Experimental: Characterization: ^1H NMR spectra were recorded with a Bruker 500 MHz spectrometer. UV-Vis spectra were recorded on an Agilent Cary-5 spectrophotometer. Steady-state fluorescence spectra were measured on a HITACHI F-7000 spectrometer. […] The sample for TEM measurement was prepared by dropping the solution onto a carbon-coated copper grid following negative staining with 2.0% (w/v) phosphotungstic acid. The particle size and size distribution were measured by using dynamic light scattering (DLS) on a Malvern Nano-ZS particle size analyzer, excitation wavelength 532 nm. All samples in the Stern-Volmer quenching plots experiments were deaerated with argon for ca. 15 min before measurement and the gas flow was maintained during the measurements. For the TTA upconversion spectra measurement, the diode pumped solid-state laser (650 nm, continues wave, CW, Hi-Teach company, China) was used as the excitation light source and a modified spectrofluorometer was used to record the upconversion spectra. For the prodrug photolytic experiment, an All LED (Mightex Company) was used as the excitation light source.
From the absorption and emission spectra of Sen and PPGs, the triplet and singlet energy levels of PPG and Sen can be calculated. The maximum emission wavelength of phosphorescence is the triplet excited state energy level (T1) of the Sen. The maximum emission wavelength of fluorescence is the singlet excited state energy level (S1) of the PPGs. Moreover, according to the literature, we know the triplet excited energy levels of PPGs. The detail information is always in […]

[5] = PPGs, from the literature, cited from earlier work
[6] = Photocleavage quantum yield / photolytic quantum efficiency calculation; details: for ε1 × Φp: ε (PPGs) × Φp (PPGs); ηp (direct): direct short wavelength illumination
From the text: We compared photolytic quantum efficiency of the widely used PPG of Cou by using the UCNPs as phototransducer.

Structure (SMILES): CC(=O)OCc1ccc2c3cccc4cccc(c5cccc1c52)c43 [compound 8]
- photolytic yield [1]: 70%
- Yield (HPLC) of photolytic reaction ([1]; PdTPBP, air, room light, 60 min): No reaction
- Yield (HPLC) of photolytic reaction ([1]; PdTPBP, argon, room light, 60 min): No reaction
- Yield (HPLC) of photolytic reaction ([1]; PdTPBP, dark, argon, 1 h): No reaction
- photolytic yield ([1]; PdTPBP, far-red LED light (20 mW/cm^2, 650 nm)): 87% and 87.1%
- Yield (HPLC) of photolytic reaction ([1]; PdTPBP, light, air, 1 h): No reaction
- Yield (HPLC) of photolytic reaction ([1]; PdTPBP, light, argon, 1 h): 87.1%
- photolytic yield ([1]; PtTNP, NIR LED light (20 mW/cm^2, 720 nm, 1 h)): 14.7%
- Yield (HPLC) of photolytic reaction ([1]; PtTNP, dark, argon, 1 h): No reaction
- Yield (HPLC) of photolytic reaction ([1]; PtTNP, light, air, 1 h): No reaction
- Yield (HPLC) of photolytic reaction ([1]; PtTNP, light, argon, 1 h): 14.7%
- Yield (HPLC) of photolytic reaction ([1]; compound only (no PdTPBP), far red light, argon, 1 h): No reaction
- Yield (HPLC) of photolytic reaction ([1]; compound only (no PtTNP), NIR light, argon, 1 h): No reaction
- Yield (HPLC) of photolytic reaction ([1]; compound only, air, blue light (445 nm, 20 mW/cm^2), 60 min): 59%
- Yield (HPLC) of photolytic reaction ([1]; compound only, air, dark, 60 min): No reaction
- Yield (HPLC) of photolytic reaction ([1]; compound only, air, room light, 60 min): No reaction
- quenching of the photoluminescence of PdTPBP ([2]; PdTPBP): obvious quenching effects
- ksv (bimolecular quenching constant) ([2]; PdTPBP as sensitizer): 1.09 × 10^9 g M^−1S^−1
- ksv Stern-Volmer quenching constant ([2]; PdTPBP as sensitizer): 243000 g/M
- quenching of the photoluminescence of PtOEP [2]: significant quenching
- ksv (bimolecular quenching constant) ([2]; PtOEP as sensitizer): 2.9 × 10^9 j M^−1S^−1
- ksv Stern-Volmer quenching constant ([2]; PtOEP as sensitizer): 262000 J/M
- quenching of the photoluminescence of PtTNP ([2]; PtTNP): quenching effect
- upconversion quantum yield ([3]; paired with PdTPBP): 5.8%
- upconversion quantum yield ([3]; paired with PtOEP): 9.5%
- upconversion quantum yield ([3]; paired with PtTNP): 0.05%
- 2 × T1 − S1 [4]: 0.26 eV
- S1 singlet excited state [4]: 2.78 eV
- λabs maximum absorption wavelength [4]: 440
- λem maximum emission wavelength [4]: 445
- ξ molar extinction coefficient [4]: 4.0 10^4 M^−1 cm^−1
- T1 triplet excited state ([5]; listed as Py): 1.52 ^m eV and 1.52 eV
- increase of ηp (TTAP) over ηp (direct) ([6]; PdTPBP): 282%
- ε2 × Φp: ε (Sen) × Φp (PPGs); ηp (TTAP) ([6]; PdTPBP as sensitizer): 10230 ^g
- ε2 × Φp: ε (Sen) × Φp (PPGs); ηp (TTAP) ([6]; PdTPBP as sensitizer, listed as Py): 10230
- increase of ηp (TTAP) over ηp (direct) ([6]; PtOEP): 179%
- ε2 × Φp: ε (Sen) × Φp (PPGs); ηp (TTAP) ([6]; PtOEP as sensitizer): 6510 ^j
- ε2 × Φp: ε (Sen) × Φp (PPGs); ηp (TTAP) ([6]; PtOEP as sensitizer, listed as Py): 6510
- increase of ηp (TTAP) over ηp (direct) ([6]; PtTNP): 342%
- ε2 × Φp: ε (Sen) × Φp (PPGs); ηp (TTAP) ([6]; PtTNP as photosensitizer): 12400^h
- ε2 × Φp: ε (Sen) × Φp (PPGs); ηp (TTAP) ([6]; PtTNP as photosensitizer, listed as Py): 12400
- ε1 × Φp: ε (PPGs) × Φp (PPGs); ηp (direct) [6]: 3627

Structure (SMILES): CC(=O)OCc1c2ccccc2cc2ccccc12 [compound 2]
- Yield (HPLC) of photolytic reaction ([1]; PtOEP, dark, argon, 1 h): No reaction
- photolytic yield ([1]; PtOEP, green LED light (20 mW/cm^2, 532 nm)): 83%
- Yield (HPLC) of photolytic reaction ([1]; PtOEP, light, air, 1 h): Trace
- Yield (HPLC) of photolytic reaction ([1]; PtOEP, light, argon, 1 h): 83.2%
- Yield (HPLC) of photolytic reaction ([1]; compound only (no PtOEP), green light, argon, 1 h): No reaction
- quenching of the photoluminescence of PtOEP [2]: significant quenching
- ksv (bimolecular quenching constant) ([2]; PtOEP as sensitizer): 2.43 × 10^9 j M^−1S^−1
- ksv Stern-Volmer quenching constant ([2]; PtOEP as sensitizer): 219000 J/M
- upconversion quantum yield ([3]; paired with PtOEP): 8.7%
- 2 × T1 − S1 [4]: 0.53 eV
- S1 singlet excited state [4]: 3.02 eV
- λabs maximum absorption wavelength [4]: 366
- λem maximum emission wavelength [4]: 411
- ξ molar extinction coefficient [4]: 1.1 10^4 M^−1 cm^−1
- T1 triplet excited state ([5]; listed as An): 1.77 ^n eV and 1.77 eV
- increase of ηp (TTAP) over ηp (direct) ([6]; PtOEP): 638%
- ε2 × Φp: ε (Sen) × Φp (PPGs); ηp (TTAP) ([6]; PtOEP as sensitizer): 6230 ^j
- ε2 × Φp: ε (Sen) × Φp (PPGs); ηp (TTAP) ([6]; PtOEP as sensitizer, listed as An): 6230
- ε1 × Φp: ε (PPGs) × Φp (PPGs); ηp (direct) [6]: 979
- ε1 × Φp: ε (PPGs) × Φp (PPGs); ηp (direct) ([6]; listed as An): 976
